Measured values as given in patent publication US20150283120A1, “ANTIBIOTIC METHODS AND COMPOSITIONS FOR BACTERIA INFECTIONS” (THE UNIVERSITY OF CHICAGO, priority 2012, published 2015).
Entries after “also recorded” stand apart in the source; their conditions may differ. Structures can show the parent of a compound that is named as a salt. Where two headings read alike, the source gives them in different places.

Columns and labels:
VISA 2283 = assay: microbe, parasite or virus in culture; assay type: cell-based, Staphylococcus aureus; design: MIC (in combination) Van+: unit not given beside the values; settings: for MIC: Staphylococcus aureus, read-out: MIC compound; for Synergy category: with vancomycin
Source text: (§1) As shown in the analysis of the checkerboard assays (Table 6), gossypol fully potentiated vancomycin (FIC i<0.5) in hVISA, VISA, VRS2 and VRS1. […] Clomiphene partially potentiated vancomycin in hVISA, VISA, and VRS1 and it fully potentiated in strain VRS2.

VRS1 = assay: microbe, parasite or virus in culture; assay type: cell-based, Staphylococcus aureus; settings: for MIC: Staphylococcus aureus, read-out: MIC compound; for Synergy category: with vancomycin
Source text: as §1

hVISA 2275 = assay: microbe, parasite or virus in culture; assay type: cell-based, Staphylococcus aureus; settings: for MIC: Staphylococcus aureus, read-out: MIC compound; for Synergy category: with vancomycin
Source text: as §1

VRS2 = assay: microbe, parasite or virus in culture; assay type: cell-based, Staphylococcus aureus; settings: for MIC: Staphylococcus aureus, read-out: MIC compound
Source text: as §1

diverse MRSA strains = assay: MIC of oxacillin with a single concentration of compound in multiple MRSA strains; assay type: cell-based, Staphylococcus aureus; settings: for MIC 80 of Ox in presence of compound: panel of 11 MRSA isolates, clom 3.8 μM, gos 15 μM, pyr 0.5 μM; for MIC50 of oxacillin in the presence of compound / MIC80 of oxacillin in the presence of compound / fold decrease in the oxacillin MIC50: panel of strains; for fold decrease in the oxacillin MIC50: with compound against oxacillin alone
Method: Testing potentiation of oxacillin by compounds in multiple MRSA strains: In order to be considered a synergistic agent in therapy of MRSA infection, it must be effective as a potentiator in diverse MRSA strains. To determine whether the oxacillin potentiators were effective against MRSA strains besides USA300, a single effective concentration of three compounds that were not known as antibiotics—gossypol, pyrvinium and clomiphene—were tested against multiple MRSA genetic backgrounds. Each compound was tested at a single optimal concentration, determined in the checkerboard assays, in combination with various concentrations of oxacillin. The strains included in this panel were from diverse genetic backgrounds as determined by multilocus sequence type (MLST) and contained a variety of SCCmec types. […] The MIC80 was […] for clomiphene, gossypol, and pyrvinium, respectively.

[1] = system: MRSA strain USA300-isolate 923; assay: Checkerboard MIC testing of compounds with oxacillin; assay type: cell-based, Staphylococcus aureus; settings: for oxacillin MIC: strain 923, 24 h; for change of the MIC of oxacillin with compound concentration: strain 923, checkerboard; for bactericidal effect of oxacillin (MBC, >99.9% killing): strain 923, wells with FICi≦0.5 spotted on TSA
MRSA strain 8004-01 = assay: Checkerboard oxacillin + compound, strain 8004-01; design: MIC OX / MIC OX (+) / MIC cmpd alone: unit not given beside the values; settings: strain 8004-1 (ST239); for MIC cmpd +: compound in combination with oxacillin; for FICi: oxacillin + compound; for MIC OX (+): oxacillin in combination with compound
vraR transcription = assay: Tertiary screen: qRT-PCR of vraR in strain 923; assay type: cell-based, Staphylococcus aureus; settings: for classification of lux screen result against qRT-PCR (true/false repressor or stimulator): in the presence of oxacillin; for Effect on vraSR Transcription: With oxacillin: qRT-PCR of vraR, compound 10 μM + oxacillin 2 μg/mL
[2] = system: vraSR operon (vra promoter, Pvra::lux); assay: Primary screen: Pvra-lux luminescence (vraSR induction); assay type: cell-based, Staphylococcus aureus; settings: compound 10 μM, oxacillin 2 μg/mL; luminescence at 2 hours; library screened twice
[3] = system: test strain (923 pPvra-lux); assay: Primary screen: growth (OD) of test strain with compound, with and without oxacillin; assay type: cell-based, Staphylococcus aureus; settings: compound 10 μM, with and without oxacillin 2 μg/mL; OD at 24 h; library screened twice
[4] = system: MRSA strain USA300 Pvra-lux; assay type: cell-based, Staphylococcus aureus; settings: compound 10 μM + oxacillin 2 μg/mL
In short: (§2)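 Secondary screen: compound at 10 μM plus oxacillin 2 μg/mL, four biological replicates, luminescence read every 15 minutes. RG and RL are OD600 or max LU with compound plus oxacillin over pooled same-plate oxacillin controls; RL <0.8 repressor, >1.2 stimulator, 0.80-1.2 neutral.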

[5] = system: vraSR transcription (Pvra::lux); assay type: cell-based, Staphylococcus aureus; settings: compound 10 μM + oxacillin 2 μg/mL
In short: as §2

CCN(CC)CCOc1ccc(/C(=C(/Cl)c2ccccc2)c2ccccc2)cc1 [Clomiphene citrate (Z,E), 2-(4-(2-chloro-1,2-diphenylethenyl)phenoxy)-N,N-diethyl-ethanamine]
MIC (VISA 2283; VISA 2283, compound alone): 12 mg/L | FICi V + compound (VISA 2283; VISA 2283): 0.75 | Van FIC (VISA 2283; VISA 2283): 0.5 | compound FIC (VISA 2283; VISA 2283): 0.25 | fold decrease Van MIC (VISA 2283; VISA 2283): 2 fold | MIC (in combination) compound+ (VISA 2283; VISA 2283, compound MIC with the indicated Van concentration): 3 | MIC (in combination) Van+ (VISA 2283; VISA 2283, vancomycin MIC in combination with compound): 4 | Synergy category (VISA 2283; VISA 2283): partially potentiated (partially potentiated vancomycin (FIC i>0.5 and <1.0)) | Synergy category (VISA 2283; VISA 2283, listed as Clo): partial (partially potentiated vancomycin (FIC i>0.5 and <1.0)) | MIC (VRS1; VRS1, compound alone): 12 mg/L | FICi V + compound (VRS1; VRS1): 0.75 | Synergy category (VRS1; VRS1): partially potentiated (partially potentiated vancomycin (FIC i>0.5 and <1.0)) | Synergy category (VRS1; VRS1, listed as Clo): partial (partially potentiated vancomycin (FIC i>0.5 and <1.0)) | MIC (hVISA 2275; hVISA 2275, compound alone): 12 mg/L | Synergy category (hVISA 2275; hVISA 2275, listed as Clo): partial (partially potentiated vancomycin (FIC i>0.5 and <1.0)) | MIC (VRS2; VRS2, compound alone): 12 mg/L | MIC 80 of Ox in presence of compound (diverse MRSA strains): 2 mg/L | MIC50 of oxacillin in the presence of compound (diverse MRSA strains): 0.5 mg/L | MIC80 of oxacillin in the presence of compound (diverse MRSA strains): 0.002 mg/L | fold decrease in the oxacillin MIC50 (diverse MRSA strains): 32 fold | oxacillin MIC ([1]; compound 0.25 μM): 32 mg/L | oxacillin MIC ([1]; compound 0.5 μM): 16 mg/L | oxacillin MIC ([1]; compound 1 μM): 32 mg/L | oxacillin MIC ([1]; compound 2 μM): 32 mg/L | oxacillin MIC ([1]; compound 4 μM): 8 mg/L | oxacillin MIC ([1]; compound 8 μM): 8 mg/L | oxacillin MIC ([1]; compound 16 μM): 2 mg/L | change of the MIC of oxacillin with compound concentration [1]: dose dependent decrease | bactericidal effect of oxacillin (MBC, >99.9% killing) [1]: increased the bactericidal effect of oxacillin | FIC Compound (MRSA strain 8004-01): 0.5 | FIC Ox (MRSA strain 8004-01): .03 | MIC cmpd alone (MRSA strain 8004-01): 10.4 | MIC cmpd + (MRSA strain 8004-01): 5.2 mg/L | FICi (MRSA strain 8004-01): 0.53 | MIC OX (+) (MRSA strain 8004-01): 16 | classification of lux screen result against qRT-PCR (true/false repressor or stimulator) (vraR transcription): true vraSR expression repressors | Effect on vraSR Transcription: With oxacillin (vraR transcription; listed as clomifene): vraR inhibitors; also recorded: repress

Cc1cc2c(C(C)C)c(O)c(O)c(C=O)c2c(O)c1-c1c(C)cc2c(C(C)C)c(O)c(O)c(C=O)c2c1O [Gossypol, 2,2′-bis-(Formyl-1,6,7-trihydroxy-5-isopropyl-3-methylnaphthalene)]
primary screen category by effect on vraSR (Pvra-lux luminescence) [2]: repressed Pvra::lux in both primary screens | MIC (VISA 2283; VISA): 10.4 mg/L | Synergy category (VISA 2283; VISA 2283): fully potentiated (fully potentiated vancomycin (FIC i<0.5)) | Synergy category (VISA 2283; VISA 2283, listed as Gos): partial (partially potentiated vancomycin (FIC i>0.5 and <1.0)) | MIC (VRS1): 20.8 mg/L | Synergy category (VRS1; VRS1, listed as Gos): synergistic (fully potentiated vancomycin (FIC i<0.5)) | MIC (hVISA 2275): 10.4 mg/L | FICi V + compound (hVISA 2275; hVISA 2275): 0.38 | Van FIC (hVISA 2275; hVISA 2275): 0.25 | compound FIC (hVISA 2275; hVISA 2275): 0.125 | fold decrease Van MIC (hVISA 2275; hVISA 2275): 4 fold | MIC (in combination) compound+ (hVISA 2275; hVISA 2275, compound MIC with the indicated Van concentration): 1.3 | Synergy category (hVISA 2275; hVISA 2275): fully potentiated (fully potentiated vancomycin (FIC i<0.5)) | Synergy category (hVISA 2275; hVISA 2275, listed as Gos): synergistic (fully potentiated vancomycin (FIC i<0.5)) | MIC (VRS2): 5.2 mg/L | FICi V + compound (VRS2; VRS2): 0.31 | Van FIC (VRS2; VRS2): 0.06 | compound FIC (VRS2; VRS2): 0.25 | fold decrease Van MIC (VRS2; VRS2): 16 fold | MIC (in combination) compound+ (VRS2; VRS2, compound MIC with the indicated Van concentration): 1.3 | Synergy category (VRS2; VRS2, with vancomycin, listed as Gos): synergistic (fully potentiated vancomycin (FIC i<0.5)) | primary screen category by effect on growth of MRSA strain 923 [3]: strong growth inhibitors on their own | MIC 80 of Ox in presence of compound (diverse MRSA strains): 8 mg/L | MIC50 of oxacillin in the presence of compound (diverse MRSA strains): 0.5 mg/L | MIC80 of oxacillin in the presence of compound (diverse MRSA strains): 0.008 mg/L | fold decrease in the oxacillin MIC50 (diverse MRSA strains): 32 fold | oxacillin MIC ([1]; compound 0.25 μM): 32 mg/L | oxacillin MIC ([1]; compound 0.5 μM): 32 mg/L | oxacillin MIC ([1]; compound 1 μM): 16 mg/L | oxacillin MIC ([1]; compound 2 μM): 4 mg/L | oxacillin MIC ([1]; compound 4 μM): 2 mg/L | oxacillin MIC ([1]; compound 8 μM): 2 mg/L | oxacillin MIC ([1]; compound 16 μM): 2 mg/L | change of the MIC of oxacillin with compound concentration [1]: dose dependent decrease | bactericidal effect of oxacillin (MBC, >99.9% killing) [1]: increased the bactericidal effect of oxacillin | OD600 category [4]: inhibited (of <0.8 were classified as oxacillin synergists or potentiators) | RG avg (relative growth) ([4]; ratio of OD600 to oxacillin alone, four runs): 0.16 | Effect on vraSR transcription [5]: repress (“vraSR repressors” (mean RL of <0.8)) | RL avg (relative luminescence) ([5]; ratio of LU to oxacillin alone, four runs): 0.11 | FIC Compound (MRSA strain 8004-01): .5 | FIC Ox (MRSA strain 8004-01): .06 | MIC cmpd alone (MRSA strain 8004-01): 40 | MIC cmpd + (MRSA strain 8004-01): 20 mg/L | FICi (MRSA strain 8004-01): 0.56 | FICi (MRSA strain 8004-01; listed as Gos): .56 | MIC OX (+) (MRSA strain 8004-01): 32 | classification of lux screen result against qRT-PCR (true/false repressor or stimulator) (vraR transcription): true vraSR expression repressors | Effect on vraSR Transcription: With oxacillin (vraR transcription): vraR inhibitors; also recorded: repress
